IC50 and Kd data for seven compounds are collected here from BindingDB's records for doi:10.1021/jm020865i (Departement D'Ingenierie Et D'Etudes Des Proteines, 2002).

*1 amine or outer side, *2 acyl side, *3 side chain or, on linkers, in order; H or OH if unused. Where a SMILES comes first, the peptide text is derived from it. The star is where a group is joined. pNA = O=[N+]([O-])c1ccc(N*)cc1; Suc = O=C(CCC(=O)[*:2])[*:1]

Test [1] addresses Peptidyl-prolyl cis-trans isomerase A, cyclophilin A (Homo sapiens) (UniProt P62937). As to the kind of experiment: Inhibitory activity against Human Cyclophilin hCyp-18 Peptidyl-prolyl isomerase by using the standard trypsin-coupled PPIase (peptidyl-prolyl isomerases) assay.
Test [2] has the same target. As to the kind of experiment: The compound was evaluated for its binding affinity against Human Cyclophilin hCyp-18 Peptidyl-prolyl isomerase.
Test [3] has the same target. The test is described as above. The source holds these as a separate data set.

Chain of Peptidyl-prolyl cis-trans isomerase A, cyclophilin A (Homo sapiens) (P62937 whole entry, looked up): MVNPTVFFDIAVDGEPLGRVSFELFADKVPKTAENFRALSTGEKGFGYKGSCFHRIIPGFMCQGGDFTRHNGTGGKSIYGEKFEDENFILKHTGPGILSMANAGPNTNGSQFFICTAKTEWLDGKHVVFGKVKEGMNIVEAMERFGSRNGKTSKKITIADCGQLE

As for `C[C@H](NC(=O)CCC(=O)O)C(=O)NCC(=O)N1CCC[C@H]1C(=O)N[C@@H](Cc1ccccc1)C(=O)Nc1ccc([N+](=O)[O-])cc1` [N-[1-(2-{2-[1-(4-Nitro-phenylcarbamoyl)-2-phenyl-ethylcarbamoyl]-pyrrolidin-1-yl}-2-oxo-ethylcarbamoyl)-ethyl]-succinamic acid] (Suc-AGPF-pNA), the 50% inhibitory concentration (IC50) – broadly, the concentration needed to halve the response being measured – in test [1] came to 1450 µM. Moreover, binding in test [2] was characterised by a dissociation constant (Kd) of 140 µM. On to `CCOP(=O)(CNC(=O)[C@H](C)NC(C)=O)N1CCCC1C(=O)N[C@H](CNc1ccc([N+](=O)[O-])cc1)Cc1ccccc1` (some centres not stated) [[(2-Acetylamino-propionylamino)-methyl]-{2-[1-benzyl-2-(4-nitro-phenylamino)-ethylcarbamoyl]-pyrrolidin-1-yl}-phosphinic acid ethyl ester], for which the Kd (in general, the concentration at which binding is half-saturated) in test [3] was 200 µM. The compound `C[C@H](NC(=O)CCC(=O)O)C(=O)N[C@@H](C)C(=O)N1CCC[C@H]1C(=O)N[C@@H](Cc1ccccc1)C(=O)Nc1ccc([N+](=O)[O-])cc1` [N-[1-(1-Methyl-2-{2-[1-(4-nitro-phenylcarbamoyl)-2-phenyl-ethylcarbamoyl]-pyrrolidin-1-yl}-2-oxo-ethylcarbamoyl)-ethyl]-succinamic acid] (Suc-AAPF-pNA) displayed an IC50 in test [1] of 540 µM. The equilibrium dissociation constant (Kd) in test [3] stood at 135 µM.

Compound `CC(=O)N[C@@H](C)C(=O)N[C@@H](C)C(=O)N1CCC[C@H]1C(=O)N[C@@H](Cc1ccccc1)C(=O)Nc1ccc([N+](=O)[O-])cc1` [1-[2-(2-Acetylamino-propionylamino)-propionyl]-pyrrolidine-2-carboxylic acid [1-(4-nitro-phenylcarbamoyl)-2-phenyl-ethyl]-amide] (Ac-AAPF-pNA) displayed an IC50 in test [1] of 640 µM. In addition, the affinity in test [3], expressed as Kd, was 145 µM.

`COC(=O)Cc1ccc(NC(=O)[C@H](Cc2ccccc2)NC(=O)C2CCCN2P(=O)(O)CNC(=O)[C@H](C)NC(C)=O)cc1` (some centres not stated) [[(2-Acetylamino-propionylamino)-methyl]-{2-[1-(4-methoxycarbonylmethyl-phenylcarbamoyl)-2-phenyl-ethylcarbamoyl]-pyrrolidin-1-yl}-phosphinic acid anion]: binding in test [3] was put at a Kd of 79 µM.

On to `CC(=O)N[C@@H](C)C(=O)NCC(=O)C(=O)N1CCCC1C(=O)N[C@@H](Cc1ccccc1)C(=O)Nc1ccc([N+](=O)[O-])cc1` (some centres not stated) [1-[3-(2-Acetylamino-propionylamino)-2-oxo-propionyl]-pyrrolidine-2-carboxylic acid [1-(4-nitro-phenylcarbamoyl)-2-phenyl-ethyl]-amide], for which the IC50 in test [1] worked out at 215 µM. Besides, the Kd in test [3] was 127 µM. The matching figures for `CCOP(=O)(CNC(=O)[C@H](C)NC(=O)CCC(=O)O)N1CCCC1C(=O)N[C@@H](Cc1ccccc1)C(=O)Nc1ccc([N+](=O)[O-])cc1` (some centres not stated) [N-{1-[(Ethoxy-{2-[1-(4-nitro-phenylcarbamoyl)-2-phenyl-ethylcarbamoyl]-pyrrolidin-1-yl}-phosphinoylmethyl)-carbamoyl]-ethyl}-succinamic acid]: 15 µM and 20 µM.
